Measured values as given in patent US20120039926A1, “Compositions and Methods for Modulating Immunogenic Responses by Activating Dendritic Cells” (priority 2009, published 2012).

Experiments:
BM cells = test: Protein array of spent medium from treated BM cells; type: cell-based, mouse
Procedure: Bone marrow (BM) cells were prepared. Briefly, the femurs and tibias were obtained from five C57BL/6 female mice, and the ends were removed to expose the hollow bone packed with marrow. BM cells were flushed from the bones with cold Hanks Balanced Salt Solution (HBSS) using a sterile disposable 22 g needle and pooled. Red blood cells (RBCs) were lysed using Tris-buffered ammonium chloride and resultant cells were washed 3 times in HBSS. BM cells were suspended in tissue culture medium (TCM) (RPMI 1640 with glutaminie plus […] PenStrep, 50 uM 2-mercaptoethanol, and 5% fetal calf serum) at approximately 5×10^6 cells/ml and incubated for 1 hour at 37° C. in a 5% CO2 atmosphere in plastic tissue culture flasks to remove adherent, mature macrophages. Decanted non-adherent cells were resuspended in TCM and 1.5×10^6 BM cells in 1 ml were placed into each well of a 24-well tissue culture plate (Falcon) and either left untreated or treated with 14.5 micromoles of J, gD, JgD or JH vaccines. After incubation for 48 hrs at 37° C., cells were viewed and photographed for changes in morphology, tissue culture supernatants were removed and the cells were prepared for flow cytometric analysis.

[1] = test system: C57BL/6 bone marrow (BM) cells; type: cell-based, mouse; conditions: second day after treatment, 14.5 micromoles
CD3- BM cells = test: Surface CD8 and intracellular IL-12p70 in CD3-depleted bone marrow cells; type: cell-based, mouse; conditions: BM cells after treatment
From the text: CD3+ cells were removed from BM cells using the fluorescence activated cell sorter and then untreated or treated with JgD or JH. Flow cytometric analysis of the sorted population confirmed the removal of CD3 positive cells. The CD3− BM cells were labeled with FITC-anti-CD8 (Beckman Coulter (clone 53-6.7)), fixed with paraformaldehyde, permeabilized with saponin (Intraprep, Immunotech), labeled with PE-anti-IL-12p70 (Beckman Coulter) and then post fixed with paraformaldehyde prior to immunofluorescence analysis.

[2] = test system: A/J or C57BL/6 female mice; type: in vivo, mouse
[3] = test system: A/J or C57BL/6 female mice; type: in vivo, mouse; conditions: sera of days 3, 10 and 24
human monocytes = type: cell-based; conditions: DC precursors (GMCSF and IL4), spent medium

J-ICBL: immune cell binding ligand, amino acid 38-50 from the β-2-microglobulin (DLLKNGERIEKVE), unconjugated
cytokine response in spent medium of treated BM cells (BM cells): failed to detect a cytokine response
CD11c expression on monocyte population of BM cells [1]: no discernable change
CD86 expression on monocyte population of BM cells [1]: no discernable change
IL-12p70 expressing cells (CD3- BM cells): no significant increase
IL-10 serum level relative to adjuvant control [2]: significantly decreased to only a half or to a third
IL-12p40 serum level ([2]; versus adjuvant control): small but not significant increase
IL-12p70 serum level ([2]; versus adjuvant control): small but not significant increase
IL-12p70 in sera (direct ELISA), in words [3]: only trace or undetectable amounts
production of cytokines (protein array) (human monocytes): no significant production of cytokines
